Source: patent US20160022636A1, “PHYSIOLOGICAL LIGANDS FOR GPR139” (JANSSEN PHARMACEUTICA NV, priority 2013, published 2016)
Where “and” joins values, the source holds several entries; their conditions need not be identical. Identical values can stand only once.

What follows are compounds tested against T1, GPR139 (Homo sapiens, UniProt Q6DWJ6) (assay: GTPγS binding assay, membranes from COS7 cells co-expressing GPR139 and GO2Q, single concentration screen). Conditions: 1 mM final concentration; single wells of triplicate; COS7 membranes co-expressing GPR139 and GO2Q.
T1 sequence (Q6DWJ6 1-353): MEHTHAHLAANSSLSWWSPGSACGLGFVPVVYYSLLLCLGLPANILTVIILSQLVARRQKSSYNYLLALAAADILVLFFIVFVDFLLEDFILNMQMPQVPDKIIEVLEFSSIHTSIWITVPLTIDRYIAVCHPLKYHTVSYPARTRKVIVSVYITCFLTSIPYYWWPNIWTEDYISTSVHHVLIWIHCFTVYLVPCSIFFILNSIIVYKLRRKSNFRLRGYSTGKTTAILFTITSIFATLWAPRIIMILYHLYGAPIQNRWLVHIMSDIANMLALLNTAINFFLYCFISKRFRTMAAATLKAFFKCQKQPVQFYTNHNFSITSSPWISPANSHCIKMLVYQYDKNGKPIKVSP
Format: biochemical
Design: expressed in transfected cells; host or cells: COS7
Description: (§1) In order identify the ligands for GPR139 two improvements in the detection assay were made to allow for the ligands to be detected. First, we chose to use a GTPγS binding assay instead of using live cultured cells. The GTPγS binding assay is a cell free system that uses the cell membrane of the cell(s) of interest rather than the live cell(s). One advantage of this assay is that potential ligands present in the cell culture media are washed away when the cell membrane is prepared. This reduces the basal level of signal and increase the chance of detecting receptor ligands when assessing compounds that activate the receptor. Second, a GO2Q chimeric G-protein was created to be co-expressed with GPR139 in order to increase the signal-to-noise ratio in the GTPγS binding assay. Historically, the Gi, Go coupled GPCRs offer much greater signal-to-noise ratio in GTPγS binding studies. For Gs and Gq coupled GPCRs, although ligand-stimulated specific signals can be detected in a GTPγS binding assay, the signal-to-noise ratios are often very small. To address this a chimeric GO2-Gq chimeric G-protein, GO2Q, with the N-terminus from Go2 protein and the C-terminus from Gq protein.
(§2) To test for compounds that activate GPR139, different amino acids and their derivatives (Table 2) were tested as ligands in the GTPγS binding assay using cell membranes from COS7 cells co-expressing GPR139 and GO2Q. Cell membrane from COS7 cells expressing GO2Q alone or co-expressing other GPCRs were also tested in GTPγS binding assay in parallel as controls. Each compound was tested in triplicate.

Structure (SMILES) | Activation levels of GPR139 (GTPγS binding signal), GPR139-GO2Q
NCCc1ccc(O)c(O)c1 [DA] | 2688 and 2825 and 2708
N[C@@H](Cc1c[nH]cn1)C(=O)O [His] | 2640 and 2499
NCCc1ccc(O)cc1 [Tyramine] | 2883 and 2932 and 2873
CSCC[C@H](N)C(=O)O [Met] | 2657 and 2829 and 2802
NC(=O)CC[C@H](N)C(=O)O [Gln] | 2583 and 2525 and 2766
N[C@@H](CSSC[C@H](N)C(=O)O)C(=O)O [Cystine] | 2501 and 2652 and 2258
O=C(O)[C@@H]1C[C@@H](O)CN1 [HO-Pro] | 2825 and 2797 and 3109
C[C@H](N)C(=O)O [Ala] | 2363 and 2348 and 2439

Each compound was assayed against T1, GPR139 (assay: calcium mobilization assay (FLIPR), GPR139 transiently expressed in HEK293 cells). Conditions: HEK293, read-out: % L-phenylalanine at 300 μM (average).
Format: cell-based
Design: expressed in transfected cells; host or cells: HEK293
Description: For these experiments human GPR139 was transiently expressed in HEK293 cells and calcium mobilization was stimulated using L-Trp, L-Phe or their derivatives.

Structure (SMILES) | activation at 300 µM
N[C@H](Cc1ccc(Br)cc1)C(=O)O [4-Bromo-D-phenylalanine] | 139%
N[C@@H](Cc1ccc(Br)cc1)C(=O)O [4-Bromo-L-phenylalanine] | 153%
N[C@@H](Cc1ccc([N+](=O)[O-])cc1[N+](=O)[O-])C(=O)O [2,4-Dinitro-L-phenylalanine] | 95%

Same assay, conditions: HEK293; calcium mobilization at 300 μM as percentage of that observed for L-phenylalanine; read-out: % L-phenylalanine at 300 μM (average)

Structure (SMILES) | activation at 300 µM
N[C@H](Cc1ccc(Cl)cc1)C(=O)O [4-Chloro-D-phenylalanine] | 110%
N[C@@H](Cc1ccccc1F)C(=O)O [2-Fluoro-L-phenylalanine] | 119%
N[C@H](Cc1ccc([N+](=O)[O-])cc1)C(=O)O [4-Nitro-D-phenylalanine] | 111%
N[C@H](C(=O)O)C(c1ccccc1)c1ccccc1 [3,3-Diphenyl-L-alanine] | 117%
Cc1ccccc1C[C@@H](N)C(=O)O [2-Methyl-D-phenylalanine] | 109%
N[C@H](Cc1c(F)c(F)c(F)c(F)c1F)C(=O)O [2,3,4,5,6-Pentafluoro-D-phenylalanine] | 145%
N[C@@H](Cc1ccc(Cl)cc1Cl)C(=O)O [2,4-Dichloro-L-phenylalanine] | 122%
Cc1ccc(C[C@@H](N)C(=O)O)cc1 [4-Methyl-D-phenylalanine] | 102%
N[C@@H](Cc1ccccc1Br)C(=O)O [2-Bromo-L-phenylalanine] | 168%
N[C@@H](Cc1ccccc1C(F)(F)F)C(=O)O [2-Trifluoromethyl-L-phenylalanine] | 110%
N[C@H](Cc1ccccc1Br)C(=O)O [2-Bromo-D-phenylalanine] | 135%
N#Cc1cccc(C[C@@H](N)C(=O)O)c1 [3-Cyano-D-phenylalanine] | 93%
Cc1cccc(C[C@@H](N)C(=O)O)c1 [3-Methyl-D-phenylalanine] | 150%
Cc1ccc(C[C@H](N)C(=O)O)cc1 [4-Methyl-L-phenylalanine] | 149%
N[C@H](Cc1ccc(Cl)c(Cl)c1)C(=O)O [3,4-Dichloro-D-phenylalanine] | 149%
N[C@@H](Cc1ccc(Cl)c(Cl)c1)C(=O)O [3,4-Dichloro-L-phenylalanine] | 149%
N[C@H](Cc1ccc(I)cc1)C(=O)O [4-Iodo-D-phenylalanine] | 125%
N[C@@H](Cc1cccc(F)c1)C(=O)O [3-Fluoro-L-phenylalanine] | 114%
N[C@H](CCCc1ccccc1)C(=O)O [D-2-Amino-5-phenyl-pentanoic acid] | 129%
N[C@@H](Cc1ccccc1[N+](=O)[O-])C(=O)O [2-Nitro-L-phenylalanine] | 150%
N[C@H](Cc1ccc(Cl)cc1Cl)C(=O)O [2,4-Dichloro-D-phenylalanine] | 135%
N[C@H](Cc1cccc(F)c1)C(=O)O [3-Fluoro-D-phenylalanine] | 94%
CC(C)(C)c1ccc(C[C@H](N)C(=O)O)cc1 [4-tert-Butyl-L-phenylalanine] | 115%

Structure (SMILES) | activation at 300 µM
N[C@@H](Cc1cccc([N+](=O)[O-])c1)C(=O)O [3-Nitro-L-phenylalanine] | 131%
N[C@H](Cc1cccc(Br)c1)C(=O)O [3-Bromo-D-phenylalanine] | 172%
N[C@@H](Cc1ccc(F)cc1)C(=O)O [4-Fluoro-L-phenylalanine] | 132%
N[C@H](Cc1ccc(F)cc1)C(=O)O [4-Fluoro-D-phenylalanine] | 91%
N[C@H](Cc1ccc(F)c(F)c1)C(=O)O [3,4-Difluoro-D-phenylalanine] | 121%
Cc1ccc(C[C@H](N)C(=O)O)c(C)c1 [2,4-Dimethyl-L-phenylalanine] | 113%
N[C@@H](Cc1ccc(Cl)cc1)C(=O)O [4-Chloro-L-phenylalanine] | 146%
N[C@H](Cc1cccc(Cl)c1)C(=O)O [3-Chloro-D-phenylalanine] | 147%
N[C@@H](Cc1cccc(Br)c1)C(=O)O [3-Bromo-L-phenylalanine] | 167%
C[C@](N)(Cc1ccc(F)cc1)C(=O)O [α-methyl-4-Fluoro-L-phenylalanine] | 125%
N[C@H](Cc1cccc([N+](=O)[O-])c1)C(=O)O [3-Nitro-D-Phenylalanine] | 164%
Cc1ccc(C[C@@H](N)C(=O)O)c(C)c1 [2,4-Dimethyl-D-phenylalanine] | 101%
CC(C)(C)OC(=O)N1Cc2ccccc2C[C@@H]1C(=O)O [(3R)-2-tert-butoxycarbonyl-3,4-dihydro-1H-isoquinoline-3-carboxylic acid] | 155%
N[C@@H](Cc1cccc(Cl)c1)C(=O)O [3-Chloro-L-phenylalanine] | 145%
N[C@@H](Cc1ccc(I)cc1)C(=O)O [4-Iodo-L-phenylalanine] | 116%
Cc1cccc(C[C@H](N)C(=O)O)c1 [3-Methyl-L-phenylalanine] | 147%
N[C@@H](Cc1cccc(C(F)(F)F)c1)C(=O)O [3-Trifluoromethyl-L-phenylalanine] | 133%
N#Cc1cccc(C[C@H](N)C(=O)O)c1 [3-Cyano-L-phenylalanine] | 115%
N[C@H](Cc1cc(F)cc(F)c1)C(=O)O [3,5-Difluoro-D-phenylalanine] | 102%
COc1ccc(C[C@H](N)C(=O)O)cc1 [4-Methoxy-L-phenylalanine] | 128%
N[C@@H](Cc1ccc(C(F)(F)F)cc1)C(=O)O [4-Trifluoromethyl-L-phenylalanine] | 150%
Cc1ccccc1C[C@H](N)C(=O)O [2-Methyl-L-phenylalanine] | 134%

Same assay, conditions: calcium mobilization at 300 μM as percentage of that observed for L-phenylalanine

Structure (SMILES) | % L-phenylalanine at 300 μM (average)
O=C(O)[C@@H]1Cc2c([nH]c3ccccc23)CN1 [L-1,2,3,4-tetrahydronorharman-3-carboxylic acid] | 151%
N[C@H](Cc1ccc(Br)s1)C(=O)O [2-(5-bromothienyl)-D-alanine] | 154%
N[C@H](CCc1ccccc1)C(=O)O [d-Homo-phenylalanine] | 105%
N[C@@H](Cc1ccc(Br)s1)C(=O)O [2-(5-bromothienyl)-L-alanine] | 151%

The compounds below were run on GO2Q alone (assay: GTPγS binding assay, control membranes from COS7 cells expressing GO2Q alone (Ct-GO2Q)). Conditions: 1 mM final concentration; single wells of triplicate; COS7 membranes with GO2Q alone (control panel).
Format: biochemical
Description: Human (A and B) or mouse (C and D) GPR139 were co-transfected with chimeric G-protein GO2Q into COS7 cells. Cell membranes from transfected cells were used in GTPγS binding studies using various ligands at different concentrations to stimulate GPR139. Membranes from COS7 cells transfected by GO2Q were used as the controls (E and F).
as §1, §2

Structure (SMILES) | Activation levels (GTPγS binding signal), Ct-GO2Q
NCCc1ccc(O)c(O)c1 [DA] | 2250 and 2213 and 2319
N[C@@H](Cc1c[nH]cn1)C(=O)O [His] | 2308 and 2259 and 2197
NCCc1ccc(O)cc1 [Tyramine] | 2132 and 2277 and 2369
CSCC[C@H](N)C(=O)O [Met] | 2173 and 2307 and 2276
NC(=O)CC[C@H](N)C(=O)O [Gln] | 2181 and 2327 and 2336
N[C@@H](CSSC[C@H](N)C(=O)O)C(=O)O [Cystine] | 2242 and 2149 and 2229
O=C(O)[C@@H]1C[C@@H](O)CN1 [HO-Pro] | 2166 and 2152 and 2189
C[C@H](N)C(=O)O [Ala] | 1903 and 2049 and 2139
